# Measured values from patent US9314438B2, “Elevation of the plasma HDL-cholesterol level” (Aarhus Universitet, priority 2007, dated 2016).
# Key:
# KKAy mice = test: In vivo study: isosteviol treatment of KKAy mice for 9 weeks (plasma lipids, body weight, food intake)
# Experimental: Twenty male KKAy-mice (Clea Japan, Tokyo, Japan), all 5 week-old, weighing 22-25 g were randomized to 2 groups and treated for 9 weeks with; A: standard chow diet (control); B: standard chow diet+20 mg/kg BW of ISV. As a non-diabetic control group (C), ten normal C57BL-mice (Taconic, Ry, Denmark) were fed with standard chow diet (control to A), see FIG. 2 for outline of the study. The food intake was measured halfway through the study. The composition of the standard chow diet dry matter was: Protein 24%, carbohydrate 71%, and Lipids 5%. The drug isosteviol (ISV, ent-16-ketobeyeran-19-oic acid; Wako Pure Chemical Industries, Osaka, Japan) was incorporated in the mice food pellet and administered orally. The Danish Council for Animal experiments has approved the study.
# Hormones and lipids were measured from blood sample at start and end of the treatment period. Blood sample was taken from the tail of the animals on chilled tubes containing heparin/aprotinin and centrifuged (4000 g, 60 seconds, 4° C.), and plasma was frozen for subsequent analysis of insulin, glucose, triglycerides, total cholesterol and HDL-cholesterol. Fasting blood glucose, as well as bodyweight (BW), was measured before and after intervention.
# Plasma blood glucose was determined using the glucose oxidase method (GOD-PAP, Boehringer Mannheim, GmbH Germany). Insulin was determined by radioimmunoassay with a guinea pig antiporcine insulin antibody (PNILGP4, Novo Nordisk, Bagsvaerd, Denmark), and mono-[^125I]-(TyrA14) labeled human insulin (Novo Nordisk) as tracer and rat insulin (Novo Nordisk) as standard. We separated free and bound radioactivity using ethanol (See Heding L. G. Determination of total serum insulin (IRI) in insulin-treated diabetic patients; Diabetologia 1972; 8:260-266). Interassay and intra-assay variation was below 10%. […] The fasting plasma triglyceride level was measured by the enzymatic colorimetric GPO-PAP method (Glycerol phosphate oxidase±phenol 4 amino phenazon), based on Trinder, using commercially available test kits (Roche Diagnostics, Basel, Germany), and the Cobas Mira instrument (Roche Diagnostics). The fasting total plasma cholesterol level and the HDL-cholesterol level were measured by an enzymatic colorimetric test, the “cholesterol CHOD-PAP” method (cholesterol oxidase±phenol 4 amino phenazon), based on Trinder, using commercially available test kits (Roche Diagnostics, Basel, Germany), and the Cobas Mira instrument (Roche Diagnostics).
# Data are expressed as means±standard error of the mean (SEM). Statistical significance between two groups was evaluated using a two-tailed t test. A p value of less than 0.05 was considered statistically significant. For plasma glucose calculations, analysis of covariance with adjustment for end body weight was performed.
# [1] = system: normal Wistar rats given a normal chow diet; test: In vivo study: isosteviol treatment of normal Wistar rats on chow diet for 20 weeks (groups 1 and 2); conditions: for plasma HDL-cholesterol level increase, Δ in %: chow diet + isosteviol 0.03 g/kg/day
# Excerpt: (§1) 44 normal wistar rats at the age of about 6 weeks and a bodyweight of about 230 g, was randomised into 4 groups, with 11 in each group. Group 1 and 2 were fed with standard chow diet±Isosteviol (0.03 g/kg/day). Group 3 and 4 were diet induced to be hyperlipidemic by feeding with a high cholesterol containing diet (1.63% g cholesterol, 0.41% g Cholic acid, 16.3% g sunflower oil)±Isosteviol (0.03 g/kg/day). In the experiment was used Isosteviol with a purity of 99.4%. The treatment period was 20 weeks.
# (§2) Blood samples were analyzed for hormones and lipids at the start and end of the study. The blood samples were taken from the tail or eye into glasses containing heparine/aprotinin. The samples were centrifuged and the plasma was frozen. The following were analyzed: total fasting plasma triglyceride level, total plasma cholesterol level, and plasma HDL-cholesterol level. Liver samples were analysed for mRNA expression of genes like SREBP-1, which have relation to the fat metabolism. The body weight was measured throughout the study period together with the food intake.
# (§3) The fasting total plasma cholesterol level and the HDL-cholesterol level were measured by an enzymatic colorimetric test, the “cholesterol CHOD-PAP” method (cholesterol oxidase±phenol 4 amino phenazon), based on Trinder, using commercially available test kits (Roche Diagnostics, Basel, Germany), and the Cobas Mira instrument (Roche Diagnostics). The fasting plasma triglyceride level was measured by the enzymatic colorimetric GPO-PAP method (Glycerol phosphate oxidase±phenol 4 amino phenazon), based on Trinder, using commercially available test kits (Roche Diagnostics, Basel, Germany), and the Cobas Mira instrument (Roche Diagnostics).
# (§4) Data are expressed as means±standard error of the mean (SEM). Statistical significance between two groups was evaluated using a two-tailed t test. A p value of less than 0.05 was considered statistically significant. For statistical analysis were used student t-tests and two way ANOVA-tests.
# (§5) The setup differs from the setup in Example 1 by the use of non-diabetic rats versus the diabetic hyperlipidemic KKAY mouse model. In the present study the effect on HDL is investigated by comparing rats with a normal cholesterol level with rats having a diet induced elevated plasma cholesterol level.
# [2] = system: normal Wistar rats given a high fat diet; test: In vivo study: isosteviol treatment of normal Wistar rats on high fat diet for 20 weeks (groups 3 and 4); conditions: for plasma HDL-cholesterol level increase, Δ in %: high fat diet + isosteviol 0.03 g/kg/day
# Excerpt: as §1, §2, §3, §4, §5
# [3] = system: patients at high risk for coronary events; conditions: phase 3 clinical trial, active treatment group; trial terminated; cited from earlier work
# [4] = KKAy mice, 20 mg/kg BW/day, after 9 weeks, n=10, in mM
# [5] = Chow +Isosteviol, end (20 weeks)
# [6] = Chow +Isosteviol, start of study
# [7] = start to end (20 weeks), listed as Isosteviol
# [8] = chow diet + isosteviol, start to end (20 weeks)
# [9] = comparing group 2 with group 1 at the end of the study period
# [10] = group 2, chow + isosteviol, start to end (20 weeks)
# [11] = High fat +Isosteviol, end (20 weeks)
# [12] = High fat +Isosteviol, start of study
# [13] = High fat +Isosteviol, start to end
# [14] = high fat diet + isosteviol, start to end (20 weeks)
smiles,measurement,setting,value
"C[C@@]12CC[C@@H]3[C@@](CC[C@H]4[C@@]3(C)CCC[C@@]4(C)C(=O)O)(CC1=O)C2 (single isomer, unassigned; ent-16) [isosteviol, ent-16-ketobeyeran-19-oic acid]",fasting plasma triglyceride (TG) level,"KKAy mice; ISV group, age 5 week (start of treatment)",1.25 mmol/L
same,fasting plasma triglyceride (TG) level,"KKAy mice; ISV group, age 14 weeks (after 9 weeks treatment)",2.02 mmol/L
same,"TG level increase, age 14 weeks compared to age 5 week","KKAy mice; ISV group, KKAy control increased 192%",62%
same,fasting total plasma cholesterol level increased by,"KKAy mice; KKAy mice, 20 mg isosteviol/kg body weight/day in chow, after 9 weeks, vs KKAy control",28%
same,"fasting plasma HDL-cholesterol, mean±SEM",KKAy mice; [4],2.999±0.091
same,"fasting plasma total cholesterol, mean±SEM",KKAy mice; [4],3.055±0.067
same,plasma HDL-cholesterol concentration increased by,"KKAy mice; KKAy mice, 20 mg/kg BW/day, after 9 weeks, vs KKAy control",71%
same,plasma TG decreased compared to the KKAy group,KKAy mice; after 9 weeks treatment,48%
same,body weight,"KKAy mice; after 9 weeks treatment, KKAy control 41.6 g",36.3 g
same,reduction in weight,"KKAy mice; end of the 9 week treatment period, vs KKAy control",13%
same,"HDL cholesterol, End",[1]; [5],1.42 ± 0.08 MM
same,"Total Cholesterol, End",[1]; [5],1.67 ± 0.09 MM
same,"HDL cholesterol, Start",[1]; [6],1.25 ± 0.06 MM
same,"Total Cholesterol, Start",[1]; [6],1.61 ± 0.06 MM
same,HDL cholesterol Δ Abs,"[1]; Chow +Isosteviol, start to end",0.17 ± 0.04 mM
same,Total Cholesterol Δ Abs,"[1]; Chow +Isosteviol, start to end",0.07 ± 0.06 mM
same,"plasma HDL-cholesterol level increase, Δ in %",[1]; start to end (20 weeks),14%
same,"plasma HDL-cholesterol level increase, Δ in %",[1]; [7],14%
same,"fasting total plasma cholesterol level increase, Δ in %",[1]; [8],4%
same,fasting total plasma cholesterol level Δ,[1]; [8],0.07 ± 0.06 mmol/L
same,"fasting total plasma cholesterol level increase, Δ in %","[1]; chow diet + isosteviol, start to end (20 weeks), listed as Isosteviol",4%
same,"reduction in triglyceride concentration, Δchange in %",[1]; [9],61±18%
same,"reduction in triglyceride concentration, Δchange in absolute values",[1]; [9],-0.28 ± 0.10 mmol/L
same,body weight reduced by,"[1]; group 2 (chow + isosteviol) compared to group 1 (chow control), 20 weeks",16%
same,"body weight, mean±SEM","[1]; group 2, chow + isosteviol, 10 weeks of treatment",371 ± 10 g
same,"body weight, mean±SEM","[1]; group 2, chow + isosteviol, after 20 weeks of treatment",388 ± 13 g
same,change in the fasting plasma triglyceride concentration,[1]; [10],-0.16 ± 0.09 mmol/L
same,decrease in the fasting plasma triglyceride concentration,[1]; [10],23%
same,deaths,"[1]; group 2, chow diet + isosteviol, 20 weeks",No deaths
same,"HDL cholesterol, End",[2]; [11],2.45 ± 0.25 MM
same,"Total Cholesterol, End",[2]; [11],4.46 ± 0.37 MM
same,"HDL cholesterol, Start",[2]; [12],1.34 ± 0.06 MM
same,"Total Cholesterol, Start",[2]; [12],1.68 ± 0.1 MM
same,HDL cholesterol Δ Abs,[2]; [13],1.11 ± 0.26 mM
same,Total Cholesterol Δ Abs,[2]; [13],2.77 ± 0.38 mM
same,deaths,"[2]; group 4, high fat diet + isosteviol, 20 weeks, two deaths in group 3 without isosteviol",No deaths
same,"plasma HDL-cholesterol level increase, Δ in %",[2]; start to end (20 weeks),88%
same,"plasma HDL-cholesterol level increase, Δ in %",[2]; [7],88%
same,"fasting total plasma cholesterol level increase, Δ in %",[2]; [14],175%
same,fasting total plasma cholesterol level Δ,[2]; [14],2.77 ± 0.38 mmol/L
same,plasma HDL-cholesterol level Δ (SEM),[2]; [14],1.11 ± 0.26 mmol/L
same,"fasting total plasma cholesterol level increase, Δ in %","[2]; high fat diet + isosteviol, start to end (20 weeks), listed as Isosteviol",175%
CCOC(=O)N1c2ccc(C(F)(F)F)cc2[C@@H](N(Cc2cc(C(F)(F)F)cc(C(F)(F)F)c2)C(=O)OC)C[C@H]1CC [torcetrapib],mortality,[3],increased mortality
